In brackets after ≈: the same amount, converted by molar mass. Like-named read-outs stand apart in the source and are kept apart here.
Key:
[1] = TG solubility measurement in sesame oil; assay type: physicochemical; conditions: oil or lipid, thermodynamic from solid, 37 °C
Description: Compounds were dissolved in fresh aliquots of sesame oil in excessive amounts in glass vials (in triplicate) and stirred using a magnetic stirring bar at 37 °C for 72 h. The mixture was then filtered by centrifugation in a Costar Spin-X Centrifuge Tube (Fisher Scientific, Loughborough, UK) at 2400 g for 5 min. The filtrates were analysed for concentration of the tested compounds by means of HPLC.

human chylomicrons (CM) = test: Ex vivo association with human plasma-derived chylomicrons; assay type: in vitro ADME; conditions: in words
From the text: The protocol for preparation of human plasma-derived CM emulsion was approved by the Faculty of Medicine and Health Sciences Research Ethics Committee, Queens Medical Centre, Nottingham University Hospitals (BT12102015 CBS SoP). Healthy male volunteers of 19–40 years old and with body mass index of 18.5–25.0 were enrolled in the study after providing informed consent. The participants were excluded if any medication was used within one week prior to enrolment. On the morning of the study, participants received a high-fat meal (equivalent to a full English breakfast). Between 3 and 4 h following breakfast, 30 mL of blood was collected using heparinised tubes (Vacutainer® Blood Collection Tubes) and centrifuged (800 g, 10 min, 15 °C) to obtain plasma.
CM separation was performed as previously reported with minor modifications. Briefly, KBr (0.57 g) was mixed with 4 mL of plasma to yield density of 1.1 g/mL. PBS with densities of 1.006, 1.019, and 1.063 g/mL were prepared by adding appropriate amounts of KBr. These PBS of different densities were layered on top of the plasma to build density gradient layers in polyallomer ultracentrifuge tubes. The samples were then centrifuged at 268,350 g for 35 min at 15 °C using an ultracentrifuge (SORVALL® TH-641 Rotor, Thermo Fisher Scientific, UK). Following ultracentrifugation, approximately 1 mL of the upper layer containing CM was collected. TG concentration of CM emulsion was assessed using the TG enzymatic kit (Sigma Aldrich, Dorset, UK). TG concentration of the emulsion was adjusted to 100 mg/dL by diluting with PBS of 1.006 g/mL density. The CM emulsion was stored at 4 °C until the association assay (˂24 h).
The association of the compounds with artificial lipid particle emulsion and human CM was assessed using previously reported methodology with minor modifications. Briefly, 1 mL of artificial lipid particle or CM emulsions (TG concentration 100 mg/dL) was used for the association assay. The emulsion was spiked with stock solutions of tested compounds (in acetonitrile) to give a final concentration of 1.755 μM. The reaction mixtures were incubated at 37 °C for 1 h with magnetic stirring at 300 rpm. Following the incubation, density gradient ultracentrifugation was applied as described above to isolate the artificial lipid particles or CM associated with the tested compounds from the rest of the experimental medium. All experiments were conducted in quintuplicates or above.

VAL cells = test: Cell growth inhibition MTT assay, VAL; assay type: cell-based; conditions: 72 h, RA 0.400 μM (0.625% × GI50 of RA)
Description: (§1) DLBCL cell lines of DOHH2 and VAL were obtained from the Gene Regulation and RNA Biology group in University of Nottingham. Cell growth inhibition was assessed by MTT assay with a minor modification from previously reported methods [[25], [26], [27]]. Cells were seeded at a density of 2000 cells/well and allowed to adapt overnight. Test compounds were serial-diluted with dimethyl sulfoxide (DMSO) and spiked on the next day to yield 0.1% (v/v) DMSO. Control wells were treated with 0.1% DMSO vehicle alone. At the time of drug addition, separately prepared wells were processed for Tzero readings as previously described. The treated cells were incubated further for 72 h at 37 °C and processed for cell growth assessments.
(§2) Assessment of statistical significance of differences between two groups was conducted by means of two-tailed unpaired t-test. Statistical significance among three or more groups was assessed by means of a one-way ANOVA followed by Tukey's multiple comparisons test. Statistical significance was declared when a p-value was lower than 0.05. […] Pharmacokinetic parameters were calculated by non-compartmental analysis using Phoenix WinNonlin 6.3 software (Pharsight, Mountain View, CA, USA).
(§3) The anticancer effects of BEX and RA were assessed by MTT assay using DLBCL cell lines. The GI50 of each drug was firstly determined in each cell line. […]

DOHH2 cells = test: Cell growth inhibition MTT assay, DOHH2; assay type: cell-based; conditions: 72 h, RA 0.425 μM (0.625% × GI50 of RA)
Description: as §1, §2, §3

[2] = Biodistribution to mesenteric lymph nodes (MLN) and lymph following oral administration in rats; assay type: in vivo; conditions: BEX analyte, dose equivalent to 10 mg/kg BEX, rat, in words
Description: (§4) The protocols for pharmacokinetic and biodistribution experiments in this study were reviewed and approved by the University of Nottingham Ethical Review Committee in accordance with the Animals [Scientific Procedures] Act 1986. Male Sprague Dawley rats (Charles River Laboratories, UK) weighing 350–380 g were used. The animals were housed in the Bio Support Unit, University of Nottingham. Continuous lymph collection was performed according to a protocol approved by the Institutional Animal Care and Use Committee at Rutgers, The State University of New Jersey. Male Sprague Dawley rats (Envigo, Inc., NJ, USA) weighing 300–350 g were used for the continuous lymph collection. Animals were allowed free access to food and water and were acclimatised for at least 6 days prior to any procedures at both institutions in a controlled-temperature environment with 12 h light/dark cycles.
Formulations were prepared as described in the above pharmacokinetic study and were delivered by an oral gavage. Animals were euthanised at pre-determined time points. Blood was collected from the posterior vena cava and lymph samples were taken from the mesenteric lymph duct. MLNs were dissected and collected as previously described. The MLNs were isolated from surrounding tissue with care not to compromise the integrity of the lymph nodes. The MLNs were homogenised (POLYTRON® PT 10–35 GT, Kinematica AG, Luzern, Switzerland) with 10 mg/mL NaF in water (1,2, w/v) on an ice bath prior to sample preparation for HPLC analysis.
(§5) A combination of protein precipitation and liquid-liquid extraction was applied to samples prior to HPLC injection. To 100 μL sample, 300 μL of acetonitrile was added for protein precipitation and then 300 μL of pH modifier was added when necessary (Supplementary Material Table S2). […] The organic layer was separated and evaporated under N2 gas. Reconstitution solvent (100 μL) was used as detailed in Supplementary Material Table S2 and 40 μL was injected into the HPLC-UV system. […] Therefore, storage and preparation of all samples were performed within the time frame and conditions of confirmed stability.
(§6) The HPLC-UV system consisting of a separation module (Waters Alliance 2695) equipped with a UV detector (Waters 996) was used for analysis. Samples in the autosampler were maintained at 4 °C and the column at 40 °C. The stationary and mobile phases were used as specified in Supplementary Material Table S2. BEX and its prodrugs were detected at 259 nm and RA and its prodrugs at 357 nm.

[3] = Plasma pharmacokinetics following oral administration in rats; assay type: in vivo, rat; conditions: for AUC(0-inf) / AUC(0-t) / half-life / Cmax: male, Sprague Dawley, rat, plasma, po, 10 mg/kg, dose equivalent to 10 mg/kg BEX; for AUC(0-inf) / AUC(0-t) / half-life: BEX in plasma; for Cmax: Cmax of BEX in plasma, read-out: C0 or Cmax; for Foral: oral bioavailability of BEX, calculated on AUC0→t after i.v. BEX 2.5 mg/kg [33]
Description: as §4
Jugular vein cannulation surgery procedures were conducted under general anaesthesia for blood sampling. The animals were allowed two days to recover following surgery and were fasted up to 12 h prior to experiments with free access to drinking water. Formulations were prepared at concentrations equivalent to 2.5 mg/mL and 10 mg/mL of active drug for intravenous and oral administration, respectively. Solutions of the tested compounds in PEG400 were used as the dosing vehicle for intravenous administration. For oral administration, all prodrugs were administered as a solution in sesame oil to stimulate intestinal lymphatic transport. For oral administration of BEX and RA, oral gavage of sesame oil was administered prior to administration of BEX or RA solution in PEG400 due to low solubility of the two compounds in TG. In the lipid-free group BEX was administered orally formulated as a solution in PEG400. The formulations were administered by an oral gavage for oral administration or via the jugular vein cannula followed by 0.3 mL heparinised saline (50 IU/mL) for intravenous injection. Blood samples of 250 μL volume were collected from the cannula at pre-determined time points following administration. NaF (10 mg/mL) was used as an anticoagulant and inhibitor of esterase activity. Blood samples were centrifuged at 3000 g for 10 min to obtain plasma.
as §5, §6
Assessment of statistical significance of differences between two groups was conducted by means of two-tailed unpaired t-test. Statistical significance among three or more groups was assessed by means of a one-way ANOVA followed by Tukey's multiple comparisons test. Statistical significance was declared when a p-value was lower than 0.05. The analyses were performed on GraphPad Prism version 7.01 (GraphPad Software, Inc., La Jolla, CA, USA). The concentrations that inhibited cell growth by 50% (GI50) were also calculated using GraphPad Prism and isobole plots were presented following a previously reported method to assess synergy between BEX and RA [28]. […]

Row | SMILES | solubility at 72 h [1] [µg/mL] | difference in affinity for artificial emulsion versus natural human CM (human chylomicrons (CM)) | cell growth inhibition by BEX in conjunction with RA (VAL cells) | cell growth inhibition by BEX in conjunction with RA (DOHH2 cells) | concentrations of BEX in intestinal lymphatics (MLNs, lymph) relative to plasma [2] | AUC(0-inf) ([3]; p.o. (lipid-based)) [ng·h/mL] | AUC(0-t) ([3]; p.o. (lipid-based)) [ng·h/mL] | half-life ([3]; p.o. (lipid-based)) [min] | AUC(0-t) ([3]; p.o. (lipid-free)) [ng·h/mL] | half-life ([3]; p.o. (lipid-free)) [min] | AUC(0-inf) ([3]; p.o. (lipid-free, PEG400)) [ng·h/mL] | Cmax ([3]; p.o. (lipid-based)) [ng/mL] | Cmax ([3]; p.o. (lipid-free)) [ng/mL] | Foral ([3]; p.o. (lipid-based)) [%] | Foral ([3]; p.o. (lipid-free)) [%]
1 | C=C(c1ccc(C(=O)OCC(=O)N(CC)CC)cc1)c1cc2c(cc1C)C(C)(C)CCC2(C)C [prodrug 20] | 2670 ± 60 (≈ 5.78 mM) | significant differences | – | – | – | – | – | – | – | – | – | – | – | – | –
2 | C=C(c1ccc(C(=O)O)cc1)c1cc2c(cc1C)C(C)(C)CCC2(C)C [BEX, bexarotene] | – | – | significantly and synergistically inhibited | significantly and synergistically inhibited | lower than those in plasma | 6620 ± 1310 | 5660 ± 1760 | 222 ± 72 | 4910 ± 1790 | 180 ± 42 | 5840 ± 2140 | 1100 ± 432 | 899 ± 338 | 30.6 ± 9.5 | 26.5 ± 9.6

— article PMC6143478, “Lipophilic activated ester prodrug approach for drug delivery to the intestinal lymphatic system” (Journal of Controlled Release, 2018)
